Test system: HUVEC
Assay: NO production (nitrite, NO2, in culture supernatant by HPLC) after adding samples to HUVEC
Format: cell-based, human
Conditions: citrulline final concentration 0.3 mM, 24-hour culture, vs control (PBS)
Method: The cells were cultured in at 37° C., in 5% CO2 incubator, and used for experiment after 4 to 6 passages. Citrulline and reduced glutathione were obtained from Kyowa Hakko Bio.
A cell suspension (0.45 mL) with the adjusted initial cell concentration of 5×10^5 cells/mL was inoculated in a 24-well plate (IWAKI).
Media with the sole addition of solvent (PBS) were used as a control group. After 24-hour culture, the cell culture (100 μL) was centrifuged at 12,000 rpm for 10 minutes, and the concentration of nitrite (NO2), which is the stable NO metabolite, in culture supernatant was quantified by HPLC (ENO-20, EICOM).

## NC(=O)NCCC[C@H](N)C(=O)O [citrulline, L-citrulline]
  effect on NO production (nitrite concentration in culture supernatant): no effect
